Experimental data reported in patent US20230087609A1, “USE OF A SOLUBLE GUANYLATE CYCLASE (sGC) STIMULATOR OR OF A COMBINATION OF A sGC STIMULATOR AND AN sGC ACTIVATOR FOR CONDITIONS WHEREIN THE HEME GROUP OF sGC IS OXIDIZED OR WHEREIN sGC IS DEFICIENT IN HEME” (Universiteit Maastricht, priority 2020, published 2023).
“Also recorded” adds a separate entry of the source.

How the values were obtained:
[1] = biological target: T1, apo-sGC (sGCβ1 H105F knock-in) (Mus musculus, UniProt O54865, H105F); assay: sGC activity in lung homogenates of apo-sGC mice; type: biochemical
T1 construct: from tissue; host or cells: lung homogenate of homozygous sGCβ1 H105F knock-in mice
T1 sequence (O54865 1-620 H105F): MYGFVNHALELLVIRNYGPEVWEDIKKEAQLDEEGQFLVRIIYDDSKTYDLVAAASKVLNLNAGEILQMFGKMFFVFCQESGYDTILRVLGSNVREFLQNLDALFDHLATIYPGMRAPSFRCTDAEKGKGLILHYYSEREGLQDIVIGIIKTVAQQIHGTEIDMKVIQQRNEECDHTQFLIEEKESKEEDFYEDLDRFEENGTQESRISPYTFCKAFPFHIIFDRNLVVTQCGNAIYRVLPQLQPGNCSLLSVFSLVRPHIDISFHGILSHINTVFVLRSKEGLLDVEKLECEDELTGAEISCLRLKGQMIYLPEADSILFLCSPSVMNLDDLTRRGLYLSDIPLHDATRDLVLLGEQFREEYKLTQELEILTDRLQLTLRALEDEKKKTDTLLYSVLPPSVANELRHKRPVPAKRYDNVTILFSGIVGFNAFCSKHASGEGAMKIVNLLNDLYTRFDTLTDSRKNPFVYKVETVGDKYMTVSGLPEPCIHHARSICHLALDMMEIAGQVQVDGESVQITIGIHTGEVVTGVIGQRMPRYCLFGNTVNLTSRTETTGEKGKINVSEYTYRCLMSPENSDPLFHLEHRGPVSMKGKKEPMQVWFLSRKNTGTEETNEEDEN
T1 sequence (Q9ERL9 1-691 partner): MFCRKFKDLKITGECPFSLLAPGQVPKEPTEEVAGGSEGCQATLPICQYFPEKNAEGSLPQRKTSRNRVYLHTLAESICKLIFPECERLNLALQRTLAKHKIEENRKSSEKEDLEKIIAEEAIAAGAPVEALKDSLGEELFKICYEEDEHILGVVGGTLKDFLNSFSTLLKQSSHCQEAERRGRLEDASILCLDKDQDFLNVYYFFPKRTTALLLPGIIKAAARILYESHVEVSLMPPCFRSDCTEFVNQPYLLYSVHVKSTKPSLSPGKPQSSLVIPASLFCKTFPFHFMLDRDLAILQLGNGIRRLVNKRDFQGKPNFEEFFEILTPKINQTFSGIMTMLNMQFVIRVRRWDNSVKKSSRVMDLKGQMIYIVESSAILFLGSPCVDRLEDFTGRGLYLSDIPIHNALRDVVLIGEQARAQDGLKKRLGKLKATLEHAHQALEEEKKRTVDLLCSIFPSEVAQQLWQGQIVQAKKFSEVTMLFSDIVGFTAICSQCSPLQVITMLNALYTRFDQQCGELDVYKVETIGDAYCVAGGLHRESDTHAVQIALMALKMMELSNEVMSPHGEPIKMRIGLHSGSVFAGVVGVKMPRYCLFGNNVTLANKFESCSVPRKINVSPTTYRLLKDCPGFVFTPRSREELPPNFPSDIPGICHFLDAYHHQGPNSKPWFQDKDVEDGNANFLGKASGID
Experimental: Adult male Sprague Dawley (SD) rats (age, 10-12 weeks) were obtained from Animal Resources Centre (Western Australia). Animals were housed on a 12 hour day/night cycle at a room temperature of 20±2° C., in the Department of Pharmacology Animal House, Monash University. The animals were fed standard rodent chow and water was available ad libitum. Homozygous male sGC(1^H105F knock-in mice (“apo-sGC mice”) were kindly provided by Tufts Medical Center, Molecular Cardiology Research Center, Boston, Mass., USA (Toonen et al., Nat Commun. 2015; 6:8482. doi: 10.1038/ncomms9482).
To measure sGC activity, cells were stimulated with 250 μM DEA/NO or 10 μM BAY58-2667 for 3 min at 37° C. Thereafter, cells were immediately lysed in 80% ethanol. Cells were scraped and, after evaporation of ethanol, re-suspended in assay buffer and sonicated. Measurement of sGC activity in crude homogenates of mouse tissue was performed as previously described (Nedvetsky et al., Brain Res. 2002; 950(1-2):148-154. doi: 10.1016/50006-8993(02)03015-9).[9] Briefly, all samples were measured as the formation of cGMP at 37° C. during 10 min in a total incubation volume of […] containing 50 mM triethanolamine-HCl (pH 7.4), 3 mM MgCl2, 3 mM glutathione (Carl Roth, Karlsruhe, Germany), 1 mM IBMX, […], 5 mM creatine phosphate, 0.25 mg/ml creatine kinase and 1 mM or 0.5 mM GTP. After adding sGC activator in the absence or presence of the sGC stimulator the reaction was started by application of GTP solution. Following incubation of each sample for 10 min the reaction was stopped by boiling for 10 min at 95° C. Thereafter the amount of cGMP was subsequently determined by a commercial enzyme immunoassay kit (Enzo Life Sciences, Lorrach, Germany or Biotrend, Cologne, Germany). In some experiments pre-incubation of freshly homogenized tissue with ODQ at 37° C. for 20 min prior measuring sGC activation was required.

[2] = system: isolated rat mesenteric arteries; assay: Relaxation of isolated rat mesenteric arteries (myograph)
From the text: The animals were killed humanely via CO2 inhalation (95% CO2, 5% O2) followed by cervical dislocation and exsanguination. The required tissues were dissected and placed in ice-cold oxygenated Krebs' solution (composition in mM: NaCl 119, KCl 4.7, MgSO4 1.17, NaHCO3 25, KH2PO4 1.18, CaCl2 2.5, glucose 5.5, EDTA 0.026, pH 7.4). The collected arteries were carefully freed of fat and connective tissue and cut into 2 mm rings.
The segments were then mounted in a small vessel myograph for the measurement of changes in isometric tension. Two 40 μm stainless steel wires were inserted through the lumen of the segment, one attached to an isometric force transducer and the other to a support driven by a micrometer. The vessels were maintained in Krebs' solution at 37° C. in 7 ml myograph chambers and were continuously bubbled with carbogen (95% O2, 5% CO2). Arteries were allowed to equilibrate for a 30 min period under zero force after which their internal diameter was normalised to an equivalent transmural pressure of 100 mmHg. Changes in isometric tension were reordered using a Myograph Interface Model 610 M version 2.2 (AD Instruments, Pty Ltd) and a chart recorder (Yokogawa, Japan), or using a MacLab® (MacLab® data-acquisition system, AD Instruments Pty Ltd.), interfaced with a Macintosh Computer. Following the 30 min equilibration period at optimal resting tension, the vessels were contracted maximally using a potassium depolarising KPSS solution (composition in mM: KCl 123, MgSO4 1.17, KH2PO4 2.37, CaCl2 2.5, glucose, 5.5 and EDTA 0.026). After the maximum contraction reached a plateau, the vessels were washed thoroughly using Krebs' solution and the tension allowed to return to the baseline. The vessels were then pre-contracted to ≈50% maximum contraction using titrated concentration of the thromboxane A2 mimetic U46619 (0.1-100 nM) and a titrated concentration of the al agonist cirazoline (1-100 nM). Subsequently, cumulative (0.5 log unit) concentration response curve to BAY 58-2667 (1 pM-0.1 μM) were constructed in the presence and absence of 100nM BAY 41-2272 (100 nM). All treatments used in our study including the pre-incubation with 10 μM ODQ for 30 min were added before the 50% pre-contraction with cirazoline and U46619 and only one concentration response curve to any vasodilator was constructed in each segment of the blood vessel. At the completion of each concentration response curve, maximal relaxation was achieved by adding nifedipine 10 μM.
Results are expressed as mean±s.e.m, with n representing the number of samples used from separate subjects. Statistical significance was accepted at the P<0.05 level. Relaxation responses to BAY58-2667 were expressed as a percentage reversal of the level of pre-contraction to U46619, with the response to nifedipine 10 μM defined as 100% relaxation. The individual response curves obtained for each vasodilator were fitted using non-linear regressions (Graphpad Prism®, version 5). In-vitro experiments have been performed with n=3 and n=1. Maximal relaxation values (%) at specific concentrations of the compounds were compared. For multiple comparisons, student's t-test or one-way analysis of variance (ANOVA) was followed by Bonferroni's test. • The results of our experiments are represented by the following non-limiting examples.

[3] = biological target: T2, human sGCa1 and mutant sGCβ1H105F (apo-sGC) in Sf9 cells (Homo sapiens, UniProt Q02153, H105F); assay: cGMP accumulation in intact Sf9 cells expressing apo-sGC; type: cell-based; conditions: 10 micromole/L DETA-NONOate alone (FIG. 12A)
T2 construct: His tag; expressed in transfected cells; host or cells: Sf9 cells co-infected with baculoviruses
T2 sequence (Q02153 1-619 H105F): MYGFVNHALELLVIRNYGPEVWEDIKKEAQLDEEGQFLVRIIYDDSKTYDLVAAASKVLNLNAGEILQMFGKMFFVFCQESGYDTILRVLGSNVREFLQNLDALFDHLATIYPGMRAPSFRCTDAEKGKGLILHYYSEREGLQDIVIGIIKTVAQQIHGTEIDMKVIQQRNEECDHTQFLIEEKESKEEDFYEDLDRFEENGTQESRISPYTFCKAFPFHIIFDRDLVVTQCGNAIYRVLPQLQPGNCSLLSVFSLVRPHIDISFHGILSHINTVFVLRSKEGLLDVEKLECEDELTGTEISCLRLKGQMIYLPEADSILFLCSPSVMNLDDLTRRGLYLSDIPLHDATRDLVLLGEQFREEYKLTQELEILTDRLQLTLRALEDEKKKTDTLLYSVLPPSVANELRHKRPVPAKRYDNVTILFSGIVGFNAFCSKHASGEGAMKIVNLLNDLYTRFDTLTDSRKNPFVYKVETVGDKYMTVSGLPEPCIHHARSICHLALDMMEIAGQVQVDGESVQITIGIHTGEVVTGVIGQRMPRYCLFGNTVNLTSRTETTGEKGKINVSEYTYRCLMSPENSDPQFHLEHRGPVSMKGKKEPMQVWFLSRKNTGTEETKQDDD
T2 sequence (Q02108 1-690 partner): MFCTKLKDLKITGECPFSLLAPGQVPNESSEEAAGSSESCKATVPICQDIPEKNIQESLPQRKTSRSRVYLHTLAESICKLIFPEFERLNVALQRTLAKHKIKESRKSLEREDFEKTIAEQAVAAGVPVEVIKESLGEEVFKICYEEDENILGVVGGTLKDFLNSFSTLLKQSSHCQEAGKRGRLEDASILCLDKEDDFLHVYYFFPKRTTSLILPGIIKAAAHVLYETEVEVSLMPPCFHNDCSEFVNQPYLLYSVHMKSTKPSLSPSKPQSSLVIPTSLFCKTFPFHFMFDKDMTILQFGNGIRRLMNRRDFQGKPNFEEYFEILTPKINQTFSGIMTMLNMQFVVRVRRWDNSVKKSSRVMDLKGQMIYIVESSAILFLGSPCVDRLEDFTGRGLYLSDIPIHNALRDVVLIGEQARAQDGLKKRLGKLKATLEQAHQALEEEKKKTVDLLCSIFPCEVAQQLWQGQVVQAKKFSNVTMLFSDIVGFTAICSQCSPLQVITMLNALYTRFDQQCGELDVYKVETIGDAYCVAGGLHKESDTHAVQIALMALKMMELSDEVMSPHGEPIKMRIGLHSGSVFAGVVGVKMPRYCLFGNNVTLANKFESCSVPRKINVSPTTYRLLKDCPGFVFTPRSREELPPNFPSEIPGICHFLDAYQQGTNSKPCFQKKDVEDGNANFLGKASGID
Experimental: Sf9 cells were co-infected with baculoviruses expressing human sGCa1 and mutant sGCβ1H105F. Forty-eight hours post-infection, the cells were treated with vehicle, NO donor, sGC stimulator, sGC activator or combination in 2 ml final volume of 10^6 cells per ml then the cells were incubated for 10 min at 27° C. The reaction was terminated by the addition of 0.1M of HCl, and cGMP was extracted on ice for 20 min. Cells were then sonicated to ensure complete lysis. The extract was then centrifuged and used for cGMP determination by an ELISA (Enzo Life Sciences).
Forty-eight hours post-infection, the cells were treated with vehicle, NO donor, sGC stimulator, sGC activator or combination in 2 ml final volume of 10^6 cells per ml and subsequently, the cells were incubated for 10 minutes at 27° C. The reaction was terminated by the addition of 0.1M of HCl, and cGMP was extracted on ice for 20 minutes. Cells were then sonicated to ensure complete lysis. The obtained cell extract was then centrifuged and used for cGMP determination by an ELISA. […] In the absence of any of the NO donor, the sGCs or the combination of these compounds, no cGMP synthesis is detected. It is now for the first time shown by the inventors that apo-sGC is still activatable even in the absence of an sGC activator known in the art. The presence of the sGCs facilitates NO binding to a secondary, heme-independent NO binding-site, and in addition, presence of an NO donor acts synergistically, when cGMP production is considered. Due to the invention, it is now made possible to treat patients with an sGCs, resulting in cGMP formation, under conditions wherein treatment with sGC activators has no effect at all or a too small effect, e.g. under conditions of ischemia, neonatal asphyxia, stroke, hypoxia, acute respiratory distress syndrome, asthma, oxidative (organ and/or tissue and/or cell) damage, etc. The invention provides a new treatment modality for these patients, which are often not sensitive (enough) for sGCa treatment. […] C.

Row | Compound | effect of BAY 58-2667 on sGC activity in the presence of BAY 41-2272 ([1]; 0.3 μM BAY 58-2667 + 10 μM BAY 41-2272, fold stimulation versus basal activity (FIG. 1)) | sGC activity, response to compound alone ([1]; lung homogenates of apo-sGC mice, compound alone) | potentiation of BAY 58-2667 by BAY 41-2272 ([1]; lung homogenates of apo-sGC mice, maximal efficiency in the nano-molar range) | maximal relaxation, BAY 58-2667 combined with BAY 41-2272 ([2]; 0.0003 μM BAY 58-2667 + 0.1 μM BAY 41-2272 (FIG. 2)) | maximal relaxation, BAY 58-2667 combined with BAY 41-2272 ([2]; 0.001 μM BAY 58-2667 + 0.1 μM BAY 41-2272 (FIG. 3)) | maximal relaxation, BAY 58-2667 combined with BAY 41-2272 ([2]; 0.003 μM BAY 58-2667 + 0.1 μM BAY 41-2272 (FIG. 4)) | cGMP formation, NO donor only [3]
1 | O=C(O)CCCCN(CCc1ccccc1OCc1ccc(CCc2ccccc2)cc1)Cc1ccc(C(=O)O)cc1 [BAY 58-2667] | potentiated | fully responsive | potentiation | Super-additive effects | Super-additive effects | Super-additive effects | 
2 | NCCN(CCN)/[N+]([O-])=N/O [DETA-NONOate] |  |  |  |  |  |  | hardly produced any cGMP; also recorded: no effect on cGMP formation
